Experimental findings from patent US20230295201A1 (Gilead Sciences, Inc., priority 2020, published 2023) are described below.

Read-outs that look alike come from different tables or passages of the source. A value given as a limit tells only on which side of the number the result lay.

What all share (type): cell-based
One assay concerns RSV strain A2. Kind of assay: RSV HEp-2 EC50 (infectious cytopathic cell protection assay). To be noted: HEp-2 cells, RSV A2, 4 days, read-out: RSV HEp-2 EC50. The procedure:
Antiviral activity against RSV is determined using an infectious cytopathic cell protection assay in HEp-2 cells. In this assay, compounds inhibiting viral infection and/or replication produce a cytoprotective effect against the virus-induced cell killing that can be quantified using a cell viability reagent. The techniques used here are novel adaptations of methods described in published literature (Chapman et al., Antimicrob Agents Chemother. 2007, 51(9):3346-53.)
HEp-2 cells are obtained from ATCC (Manassas, VI) and maintained in MEM media supplemented with 10% fetal bovine serum and penicillin/streptomycin. Cells are passaged twice a week and kept at subconfluent stage. Commercial stock of RSV strain A2 (Advanced Biotechnologies, Columbia, MD) is titered before compound testing to determine the appropriate dilution of the virus stock that generates desirable cytopathic effect in HEp-2 cells.
For antiviral tests, HEp-2 cells are grown in large cell culture flasks to near confluency but not fully so. The compounds to be tested are prediluted in DMSO in 384-well compound dilution plates, either in an 8 or 40 sample per plate standardized dose response format. 3-fold serial dilution increments of each test compound are prepared in the plates and test samples are transferred via acoustic transfer apparatus (Echo, Labcyte) at 100 nL per well into cell culture assay 384-well plates. Each compound dilution is transferred in single or quadruplicate samples into dry assay plates, which are stored until assay is ready to go. The positive and negative controls are laid out in opposite on ends of the plate in vertical blocks (1 column).
Subsequently, an infectious mixture is prepared using an appropriate dilution of virus stock previously determined by titration with cells at a density of 50,000/ml and 20 µL/well is added to test plates w/compounds via automation (uFlow, Biotek). Each plate includes negative and positive controls (16 replicates each) to create 0% and 100% virus inhibition standards, respectively. Following the infection with RSV, testing plates are incubated for 4 days in a 37° C. cell culture incubator. After the incubation, a cell viability reagent, Cell TiterGlo (Promega, Madison, WI) is added to the assay plates, which are incubated briefly, and a luminescent readout is measured (Envision, Perkin Elmer) in all the assay plates. The RSV-induced cytopathic effect, percentage inhibition, is determined from the levels of remaining cell viability. […] Various potent anti-RSV tool compounds are used as positive controls for antiviral activity.

The next assay concerns RSV A2. Kind of assay: RSV NHBE EC50 (RSV A2 antiviral assay in normal human bronchial epithelial cells). To be noted: NHBE cells, RSV A2, 4 days, read-out: RSV NHBE EC50. The procedure: Normal human bronchial epithelial (NHBE) cells were purchased from Lonza (Walkersville, MD, Cat #CC-2540) and cultured in Bronchial Epithelial Growth Media (BEGM) (Lonza, Walkersville, MD, Cat #CC-3170). The cells were passaged 1-2 times per week to maintain <80% confluency. The NHBE cells were discarded after 6 passages in culture.
To conduct the RSV A2 antiviral assay, NHBE cells were plated in 96-well plates at a density of 7,500 cells per well in BEGM and allowed to attach overnight at 37° C. Following attachment, 100 μL of cell culture media was removed and 3-fold serially diluted compound was added using a Hewlett-Packard D300 Digital Dispenser. The final concentration of DMSO was normalized to 0.05%. Following compound addition, the NHBE cells were infected by the addition of 100 μL of RSV A2 at a titer of 1×10^4.5 tissue culture infectious doses/mL in BEGM and then incubated at 37° C. for 4 days. […] The mixtures were incubated for 10 minutes at 25° C., and the luminescence signal was quantified on an Envision luminescence plate reader.

Another assay concerns HRV16. Put plainly: HRV16 HELA EC50 (cytopathic effect in H1-HeLa cells). The procedure: H1-HeLa cells, cultured in complete DMEM medium containing 10% heat-inactivated FBS and 1% Penicillin/Streptomycin, were seeded in 96 well plates at 3000 cells/well one day prior to compound dosing and infection. The antiviral activity of each compound was measured in triplicate. Compounds were added directly to the cell cultures in serial 3-fold dilutions using the HP300 digital dispenser (Hewlett Packard, Palo Alto, CA) immediately prior to infection. The plates were transferred to BSL-2 containment and the appropriate dilution of virus stock, previously determined by titration and prepared in cell culture media, was added to test plates containing cells and serially diluted compounds. Each plate included 6 wells of infected untreated cells and 6 wells of uninfected cells that served as 0% and 100% virus inhibition control, respectively. Following the infection, test plates were incubated for 96 h in a tissue culture incubator set to 33° C./5% CO2. Following incubation, the H1-HeLa cells were removed from incubation and allowed to equilibrate to 25° C. Cell viability was determined by removing 100 μL of culture medium and adding 100 μL of Cell-Titer Glo viability reagent. The mixtures were incubated on a shaker for 10 minutes at 25° C., and the luminescence signal was quantified on an Envision luminescence plate reader.

For another assay, the system named is DENV2 replicon. Kind of assay: DENV-2 Huh-7 Rep EC50 (replicon luminescence). As to conditions: read-out: DENV-2 Huh-7 Rep EC50. As for the experimental part: In 384 well plates (Greiner, Cat #781091), compounds were acoustically transferred at 200 nl per well in a 8 compound (4 replicates) or 40 compound dose response format (3 replicates). For all plates tested, Balapiravir, GS-5734 and NITD008 were included as positive inhibition controls alongside 0% inhibition, DMSO-only negative control wells. Following compound addition, Huh-7 cells containing the DENV2 replicon construct were harvested following standard cell culture procedures and were adjusted to a concentration of 1.25E5 cells/mL in cell culture media composed of cDMEM without genticin. 40 μL of the cell stock was then added to each well for a final cell density of 5,000 cells/well. Cell and compound mixtures were incubated at 37° C./5% CO2 for 48 hours. Prior to harvesting cells, EnduRen Live Cell Substrate (Promega, Cat #E6481) was prepared by suspending 3.4 mg into 100 uL of DMSO to generate a 60 mM stock solution. The stock solution was then diluted 1:200 in pre-warmed cDMEM and 10 uL of this diluted solution was added to each well of the 384 well plates. Plates were then centrifuged at 500 rpm briefly and were placed on a plate shaker for 2 min. Following mixing, plates were incubated at […] for 1.5 hours prior to measuring luminescence on an Envision luminometer.

Setting [1] is: H1-HeLa cells, 96 h, 33° C.; read-out: HRV16 HELA EC50.
[2] abbreviates: human respiratory syncytial virus, 96 h.
[3] abbreviates: human respiratory syncytial virus, HEp-2, 96 h.
Setting [4] is: Dengue virus, DENV2, Huh-7, 48 h, Huh-7 replicon cells, 48 hours.
[5] abbreviates: human respiratory syncytial virus, NHBE, 96 h.

For the compound `C[C@@H](NP(=O)(OC[C@@]1(C#N)O[C@@H](c2ccc3c(N)ncnn23)[C@H](O)[C@@H]1O)Oc1ccccc1)C(=O)O[C@H]1CC[C@H](C(F)(F)F)CC1` (single isomer, unassigned) [Example 196], the EC50 in the assay with RSV strain A2 was 4130 nM; in the assay with RSV A2, 1320 nM; with HRV16 (setting [1]) it was 7.54 µM.
As for `CCC(CC)COC(=O)[C@H](C)NP(=O)(N[C@@H](C)C(=O)OC1CCCCC1)OC[C@@]1(C#N)O[C@@H](c2ccc3c(N)ncnn23)[C@H](O)[C@@H]1O` (mixture of isomers) [Example 30, cyclohexyl ((((2R,3S,4R,5S)-5-(4-aminopyrrolo[2,1-f][1,2,4]triazin-7-yl)-2-cyano-3,4-dihydroxytetrahydrofuran-2-yl)methoxy)(((S)-1-(2-ethylbutoxy)-1-oxopropan-2-yl)amino)phosphoryl)-L-alaninate], the 50% effective concentration (EC50) in the assay with RSV strain A2 (setting [2]) was found to be 844 nM; in the assay on DENV2 replicon (Dengue virus, DENV2, Huh-7, 48 h), 60.7 µM; in the assay with RSV A2 (setting [2]), 44 nM.
Take `CC(C)OC(=O)[C@H](C)NP(=O)(OC[C@@]1(C#N)O[C@@H](c2ccc3c(N)ncnn23)[C@H](O)[C@@H]1O)Oc1ccc(C(=O)N(C)C)cc1` (stereo partly drawn) [Example 43, Isopropyl ((((2R,3S,4R,5S)-5-(4-aminopyrrolo[2,1-f][1,2,4]triazin-7-yl)-2-cyano-3,4-dihydroxytetrahydrofuran-2-yl)methoxy)(4-(dimethylcarbamoyl)phenoxy)phosphoryl)-L-alaninate]: the EC50 in the assay on RSV strain A2 (setting [3]) is 55300 nM; with DENV2 replicon (setting [4]) it was above 100 µM; with RSV A2 (setting [5]) it was at least 5000 nM.
As for `CCC(CC)COC(=O)[C@H](C)NP(=O)(N[C@@H](C)C(=O)OC1CCCCC1)OC[C@@]1(C#N)O[C@@H](c2ccc3c(N)ncnn23)[C@H](O)[C@@H]1O` (single isomer, unassigned) [Example 228], the concentration giving a half-maximal response (EC50) in the assay on RSV A2 came to 2040 nM; in the assay on HRV16 (setting [1]), 4.71 µM.
In the case of `C[C@H](NP(=O)(OC[C@@]1(C#N)O[C@@H](c2ccc3c(N)ncnn23)[C@H](O)[C@@H]1O)Oc1ccccc1)C(=O)OC1CCC(F)(F)CC1` (single isomer, unassigned) [Example 175], the EC50 in the assay with RSV strain A2 is 801 nM; in the assay with DENV2 replicon (Huh-7 replicon cells, 48 hours) it was above 100 µM; in the assay on RSV A2, 539 nM.
Regarding `C[C@H](NP(=O)(OC[C@@]1(C#N)O[C@@H](c2ccc3c(N)ncnn23)[C@H](O)[C@@H]1O)Oc1ccccc1)C(=O)OC1CCCCCCC1` (single isomer, unassigned) [Example 172], the values for the EC50 with RSV strain A2, with DENV2 replicon (setting [4]) and in the assay with RSV A2 (setting [5]) were 1450 nM, 31.4 µM and above 516 nM, respectively.
As to `COC(=O)[C@H](C)NP(=O)(OC[C@@]1(C#N)O[C@@H](c2ccc3c(N)ncnn23)[C@H](O)[C@@H]1O)Oc1cccnc1` (stereo partly drawn) [Example 249, methyl ((((2R,3S,4R,5S)-5-(4-aminopyrrolo[2,1-f][1,2,4]triazin-7-yl)-2-cyano-3,4-dihydroxytetrahydrofuran-2-yl)methoxy)(pyridin-3-yloxy)phosphoryl)-L-alaninate], the 50% effective concentration (EC50) in the assay with DENV2 replicon (setting [4]) is above 50 µM; in the assay on RSV A2 (setting [5]), at least 5000 nM.
Turning to `C[C@H](NP(=O)(OC[C@@]1(C#N)O[C@@H](c2ccc3c(N)ncnn23)[C@H](O)[C@@H]1O)Oc1ccccc1)C(=O)O[C@@H]1CCOC1` (mixture of isomers) [Example 68, (R)-Tetrahydrofuran-3-yl ((((2R,3S,4R,5S)-5-(4-aminopyrrolo[2,1-f][1,2,4]triazin-7-yl)-2-cyano-3,4-dihydroxytetrahydrofuran-2-yl)methoxy)(phenoxy)phosphoryl)-L-alaninate], the 50% effective concentration (EC50) in the assay on RSV strain A2 (setting [3]) stood at 247 nM; in the assay with HRV16 (96 h, H1-HeLa cells, 33° C., read-out: HRV16 HELA EC50) it was 4.72 µM.
`C[C@H](NP(=O)(OC[C@@]1(C#N)O[C@@H](c2ccc3c(N)ncnn23)[C@H](O)[C@@H]1O)Oc1ccccc1)C(=O)OCC12CCN(CC1)CC2` (stereo partly drawn) [Example 213, quinuclidin-4-ylmethyl ((((2R,3S,4R,5S)-5-(4-aminopyrrolo[2,1-f][1,2,4]triazin-7-yl)-2-cyano-3,4-dihydroxytetrahydrofuran-2-yl)methoxy)(phenoxy)phosphoryl)-L-alaninate]: the concentration giving a half-maximal response (EC50) was 3840 nM in the assay on RSV strain A2 (setting [3]), above 100 µM with DENV2 replicon (setting [4]) and above 5000 nM in the assay with RSV A2 (setting [5]).
As to `C[C@H](N[P@@](=O)(OC[C@@]1(C#N)O[C@@H](c2ccc3c(N)ncnn23)[C@H](O)[C@@H]1O)Oc1ccccc1)C(=O)O[C@H]1CC[C@H](C(C)(C)C)CC1` (single isomer, unassigned) [Example 23], the values for the EC50 with RSV strain A2 (setting [3]) and with RSV A2 (setting [5]) were 207 nM and 34 nM, respectively.
On to `C[C@H](NP(=O)(OC[C@@]1(C#N)O[C@@H](c2ccc3c(N)ncnn23)[C@H](O)[C@@H]1O)Oc1ccccc1)C(=O)OCC1CCCCC1` (stereo partly drawn) [Example 246, cyclohexylmethyl ((((2R,3S,4R,5S)-5-(4-aminopyrrolo[2,1-f][1,2,4]triazin-7-yl)-2-cyano-3,4-dihydroxytetrahydrofuran-2-yl)methoxy)(phenoxy)phosphoryl)-L-alaninate], for which the results for the EC50 with RSV strain A2 (setting [3]), in the assay on DENV2 replicon (setting [4]) and in the assay on RSV A2 (setting [5]) were 35 nM, 5.11 µM and 41 nM, respectively.
In the case of `CC[C@H](NP(=O)(OC[C@@]1(C#N)O[C@@H](c2ccc3c(N)ncnn23)[C@H](O)[C@@H]1O)Oc1ccccc1)C(=O)OC1CCCC1` (single isomer, unassigned) [Example 110], the 50% effective concentration (EC50) with RSV strain A2 is 281 nM; with RSV A2 it was 339 nM.
